Data as given in US7211424B1, “Mammalian Subtilisin/kexin isozyme SKI-1: a proprotein convertase with a unique cleavage specificity” (Institut de Recherches Cliniques de Montreal, priority 1999, dated 2007).
Read-outs that look alike come from different tables or passages of the source.

Columns and labels:
SKI-1 [1] = biological target: T1, SKI-1 (Homo sapiens, UniProt Q14703); format: biochemical
T1 sequence (Q14703 187-998 limits assumed): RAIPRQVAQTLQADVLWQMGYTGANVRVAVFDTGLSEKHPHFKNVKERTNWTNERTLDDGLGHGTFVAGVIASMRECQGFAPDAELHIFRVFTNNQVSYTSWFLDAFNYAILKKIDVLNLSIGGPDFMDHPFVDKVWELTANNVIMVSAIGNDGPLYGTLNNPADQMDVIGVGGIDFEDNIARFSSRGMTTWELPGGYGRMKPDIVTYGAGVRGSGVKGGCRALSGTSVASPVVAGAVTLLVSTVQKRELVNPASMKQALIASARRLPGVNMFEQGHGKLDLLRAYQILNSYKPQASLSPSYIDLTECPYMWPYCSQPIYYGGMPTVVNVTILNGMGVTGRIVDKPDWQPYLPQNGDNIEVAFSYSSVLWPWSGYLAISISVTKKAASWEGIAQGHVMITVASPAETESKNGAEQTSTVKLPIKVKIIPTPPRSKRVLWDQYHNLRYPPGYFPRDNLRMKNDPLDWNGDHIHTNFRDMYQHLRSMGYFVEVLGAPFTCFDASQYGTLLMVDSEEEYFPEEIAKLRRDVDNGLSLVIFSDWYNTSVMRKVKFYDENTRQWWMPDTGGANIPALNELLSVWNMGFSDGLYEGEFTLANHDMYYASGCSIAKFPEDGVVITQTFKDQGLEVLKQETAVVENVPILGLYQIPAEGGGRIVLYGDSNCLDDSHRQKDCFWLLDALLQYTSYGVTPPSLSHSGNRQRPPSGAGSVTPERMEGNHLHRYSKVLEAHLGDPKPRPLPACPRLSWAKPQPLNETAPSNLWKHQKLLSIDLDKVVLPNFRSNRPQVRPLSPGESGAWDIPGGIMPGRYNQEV

SKI-1 [2] = biological target: T2, SKI-1 (Homo sapiens, UniProt Q14703); experiment: Example 6: synthetic peptides examined as possible substrates of recombinant SKI-1; format: biochemical; parameters: made in house
T2 sequence (Q14703 187-1052): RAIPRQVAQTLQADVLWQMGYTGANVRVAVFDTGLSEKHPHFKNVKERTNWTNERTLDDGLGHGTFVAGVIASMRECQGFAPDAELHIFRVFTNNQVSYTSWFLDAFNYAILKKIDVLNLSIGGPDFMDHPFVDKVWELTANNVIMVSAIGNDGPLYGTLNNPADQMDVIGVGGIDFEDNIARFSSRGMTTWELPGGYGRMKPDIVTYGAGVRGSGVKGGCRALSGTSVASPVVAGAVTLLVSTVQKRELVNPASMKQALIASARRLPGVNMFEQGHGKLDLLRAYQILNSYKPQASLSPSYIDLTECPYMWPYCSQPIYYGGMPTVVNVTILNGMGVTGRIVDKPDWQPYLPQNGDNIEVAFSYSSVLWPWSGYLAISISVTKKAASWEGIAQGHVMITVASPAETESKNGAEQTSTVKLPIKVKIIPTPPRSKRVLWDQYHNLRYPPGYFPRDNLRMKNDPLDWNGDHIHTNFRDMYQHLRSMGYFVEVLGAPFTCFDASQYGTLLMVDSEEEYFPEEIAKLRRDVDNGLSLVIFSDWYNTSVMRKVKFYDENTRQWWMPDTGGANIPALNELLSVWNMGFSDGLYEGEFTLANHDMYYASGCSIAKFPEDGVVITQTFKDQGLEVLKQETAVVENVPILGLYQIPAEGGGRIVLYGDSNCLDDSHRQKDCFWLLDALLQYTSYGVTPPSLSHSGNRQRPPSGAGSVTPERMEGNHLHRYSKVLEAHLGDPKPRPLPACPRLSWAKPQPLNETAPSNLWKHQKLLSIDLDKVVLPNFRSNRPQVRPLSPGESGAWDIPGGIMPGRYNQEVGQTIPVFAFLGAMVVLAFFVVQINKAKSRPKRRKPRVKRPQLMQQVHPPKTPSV
Text: A large number of synthetic peptides based on potential cleavage sites in the hSKI-1 prodomain, proBDNF and the loop region of SREBP-2 were synthesized.
These peptides were examined as possible substrates of SKI-1.

SKI-1 [3] = biological target: T2, SKI-1; conditions: previously established (ref. 10); cited from earlier work
BTMD-hSKI-1 = biological target: T3, BTMD-hSKI-1 (Homo sapiens, UniProt Q14703); format: biochemical
T3 sequence (Q14703 187-997 limits assumed): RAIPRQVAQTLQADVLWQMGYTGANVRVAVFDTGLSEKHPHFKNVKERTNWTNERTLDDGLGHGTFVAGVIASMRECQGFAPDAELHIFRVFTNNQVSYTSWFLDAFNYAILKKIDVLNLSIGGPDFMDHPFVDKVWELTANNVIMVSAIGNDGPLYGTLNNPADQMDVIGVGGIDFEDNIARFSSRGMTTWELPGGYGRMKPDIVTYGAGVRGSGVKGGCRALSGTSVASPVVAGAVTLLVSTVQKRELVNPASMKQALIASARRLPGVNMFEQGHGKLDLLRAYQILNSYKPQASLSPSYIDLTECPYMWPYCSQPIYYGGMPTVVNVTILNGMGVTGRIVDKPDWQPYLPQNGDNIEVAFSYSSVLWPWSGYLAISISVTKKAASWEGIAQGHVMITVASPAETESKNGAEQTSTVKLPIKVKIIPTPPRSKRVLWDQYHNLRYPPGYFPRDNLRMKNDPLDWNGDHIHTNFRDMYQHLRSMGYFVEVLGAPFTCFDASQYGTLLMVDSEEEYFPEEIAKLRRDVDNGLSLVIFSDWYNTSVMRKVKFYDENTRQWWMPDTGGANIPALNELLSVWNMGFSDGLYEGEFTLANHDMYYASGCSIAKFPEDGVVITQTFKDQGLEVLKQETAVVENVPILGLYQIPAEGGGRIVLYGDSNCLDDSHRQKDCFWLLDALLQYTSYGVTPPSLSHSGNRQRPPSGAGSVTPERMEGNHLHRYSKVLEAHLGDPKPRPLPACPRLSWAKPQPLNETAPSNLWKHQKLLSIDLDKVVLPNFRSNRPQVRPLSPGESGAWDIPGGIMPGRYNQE

[4] = substrate: CC(C)C[C@H](NC(=O)[C@@H](NC(=O)[C@H](CO)NC(=O)[C@H](CCCNC(=N)N)NC(=O)CNC(=O)[C@H](CO)NC(=O)CNC(=O)[C@H](CO)NC(=O)[C@H](Cc1c[nH]cn1)NC(=O)[C@@H]1CCCN1C(=O)[C@H](Cc1c[nH]cn1)NC(=O)[C@H](CCC(N)=O)NC(=O)[C@H](CC(=O)O)NC(=O)[C@H](CO)NC(=O)[C@H](CC(=O)O)NC(=O)[C@H](Cc1c[nH]cn1)NC(=O)[C@H](C)NC(=O)CNC(=O)CN)C(C)C)C(=O)N[C@@H](CO)C(=O)N[C@@H](Cc1ccccc1)C(=O)N[C@@H](CCC(=O)O)C(=O)N[C@@H](CO)C(=O)NCC(=O)N[C@@H](CO)C(=O)NCC(=O)NCC(=O)O; experiment: purified protein, by the assay type; conditions: other: BTMD-SKI-1 medium, times giving 5–30% substrate hydrolysis; averages of duplicate assays; pH 6.5; 37.0 °C
[5] = substrate: CC(C)C[C@H](NC(=O)[C@H](C)NC(=O)[C@H](CCCNC(=N)N)NC(=O)[C@H](CC(C)C)NC(=O)[C@H](CC(C)C)NC(=O)[C@H](CCCNC(=N)N)NC(=O)[C@H](CCCNC(=N)N)NC(=O)[C@H](CO)NC(=O)[C@H](CO)NC(=O)[C@H](Cc1c[nH]cn1)NC(=O)[C@H](CCCNC(=N)N)NC(=O)CNC(=O)[C@@H](NC(=O)[C@H](C)NC(=O)[C@H](Cc1c[nH]cn1)NC(=O)[C@@H](N)Cc1c[nH]c2ccccc12)[C@@H](C)O)C(=O)N[C@@H](CCC(=O)O)C(N)=O; experiment: purified protein, by the assay type; conditions: other: BTMD-SKI-1 medium, times giving 5–30% substrate hydrolysis; averages of duplicate assays; pH 6.5; 37.0 °C
[6] = substrate: CC(C)C[C@H](NC(=O)[C@H](C)NC(=O)[C@H](CCCNC(=N)N)NC(=O)[C@H](CC(C)C)NC(=O)[C@H](CC(C)C)NC(=O)[C@H](CCCNC(=N)N)NC(=O)[C@H](CCCNC(=N)N)NC(=O)[C@@H](N)CO)C(=O)N[C@@H](CCC(=O)O)C(N)=O; experiment: purified protein, by the assay type; conditions: other: BTMD-SKI-1 medium, times giving 5–30% substrate hydrolysis; averages of duplicate assays; pH 6.5; 37.0 °C

For c1cnc2c(c1)ccc1cccnc12 [O-Phenanthroline, o-phenanthroline], the “inhibition of the processing of proBDNF by SKI-1” value (SKI-1 [1]; at 1 mM) was 25% and the “inhibition of the processing of proBDNF by SKI-1” value (SKI-1 [1]; overnight 37° C., pH 6.0, PMSF 0.5 mM + pAPMSF 50 μM, o-phenanthroline 5 mM, EDTA 10 mM) was “effectively inhibit”.

With “Ser-Ser-Arg-Arg-Leu-Leu↓Arg-Ala-Ile-Glu [(iv)]” the “cleavage by the recombinant SKI-1” value (SKI-1 [2]) was “efficiently cleaved”.

In the case of RGLT-MCA, the “cleavage of fluorogenic MCA peptides lacking P′ residues” value (SKI-1 [3]) is given as “does not cleave”.

In the case of RSVL-MCA, the “cleavage of fluorogenic MCA peptides lacking P′ residues” value (SKI-1 [3]) is listed as “does not cleave”.

With “Ser-Gly-Ser-Gly-Arg-Ser-Val-Leu↓Ser-Phe-Glu-Ser [(x)]” the “cleavage by the recombinant SKI-1” value (SKI-1 [2]) was “efficiently cleaved”.

For RGLTT-MCA, the “cleavage of fluorogenic MCA peptides lacking P′ residues” value (SKI-1 [3]) is given as “does not cleave”.

In the case of PQRKVFRSLKYAESD [IX], the “cleavage by the recombinant SKI-1” value (SKI-1 [2]) is reported as “efficiently cleaved”.

B1: ˜14 kDa peptide: ˜14 kDa N-terminal fragment of the SKI-1 prosegment, major secreted form (protein)
chain: GKKHLGDRLEKKSFEKAPCPGCSHLTLKVEFSSTVVEYEYIVAFNGYFTAKARNSFISSALKSSEVDNWRIIPRNNPSSDYPSDFEVIQIKEKQKAGLLTLEDHPNIKRVTPQRKVFRSL
For B1, the “inhibitory activity of the RP-HPLC-fractionated native prosegment” value (BTMD-hSKI-1) was “not inhibitory”.

B2: BTMD-hSKI-1 (Homo sapiens) (protein)
chain: RAIPRQVAQTLQADVLWQMGYTGANVRVAVFDTGLSEKHPHFKNVKERTNWTNERTLDDGLGHGTFVAGVIASMRECQGFAPDAELHIFRVFTNNQVSYTSWFLDAFNYAILKKIDVLNLSIGGPDFMDHPFVDKVWELTANNVIMVSAIGNDGPLYGTLNNPADQMDVIGVGGIDFEDNIARFSSRGMTTWELPGGYGRMKPDIVTYGAGVRGSGVKGGCRALSGTSVASPVVAGAVTLLVSTVQKRELVNPASMKQALIASARRLPGVNMFEQGHGKLDLLRAYQILNSYKPQASLSPSYIDLTECPYMWPYCSQPIYYGGMPTVVNVTILNGMGVTGRIVDKPDWQPYLPQNGDNIEVAFSYSSVLWPWSGYLAISISVTKKAASWEGIAQGHVMITVASPAETESKNGAEQTSTVKLPIKVKIIPTPPRSKRVLWDQYHNLRYPPGYFPRDNLRMKNDPLDWNGDHIHTNFRDMYQHLRSMGYFVEVLGAPFTCFDASQYGTLLMVDSEEEYFPEEIAKLRRDVDNGLSLVIFSDWYNTSVMRKVKFYDENTRQWWMPDTGGANIPALNELLSVWNMGFSDGLYEGEFTLANHDMYYASGCSIAKFPEDGVVITQTFKDQGLEVLKQETAVVENVPILGLYQIPAEGGGRIVLYGDSNCLDDSHRQKDCFWLLDALLQYTSYGVTPPSLSHSGNRQRPPSGAGSVTPERMEGNHLHRYSKVLEAHLGDPKPRPLPACPRLSWAKPQPLNETAPSNLWKHQKLLSIDLDKVVLPNFRSNRPQVRPLSPGESGAWDIPGGIMPGRYNQE
In the case of B2, the Km [4] is reported as 124 nM*1000, the Vmax [4] is reported as 8.33e-06 µmol/min and the Km [5] is reported as 17 nM*1000. It also gave a Vmax [5] of 6.67e-06 µmol/min, a Km [6] of 109 nM*1000 and a Vmax [6] of 1.83e-05 µmol/min.
